Measurements from PubChem BioAssay (NCI).
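Method: 48-hour compound exposure of cells in 96-well plates, five concentrations, linear interpolation of endpoints. Abbreviation: GI50, concentration required for 50% inhibition of growth. TGI marks complete inhibition of growth.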

Experiments:
Experiment in all cases: inhibition of tumour cell growth, NCI panel, 48 h; in the data active means GI50 below about 0.43 µM; inactive means the rest
[1] = tested on: T-47D breast
[2] = tested on: ACHN renal
[3] = tested on: OVCAR-3 ovarian
[4] = tested on: HCT-15 colon
[5] = tested on: 786-0 renal
[6] = tested on: HS 578T breast
[7] = tested on: NCI-H23 lung
[8] = tested on: RPMI-8226 leukemia
[9] = tested on: SW-620 colon
[10] = tested on: SNB-75 CNS
[11] = tested on: PC-3 prostate
[12] = tested on: NCI-H226 lung
[13] = tested on: COLO 205 colon
[14] = tested on: HT29 colon
[15] = tested on: SN12C renal
[16] = tested on: CAKI-1 renal
[17] = tested on: SK-MEL-2 melanoma
[18] = tested on: MDA-MB-231 breast
[19] = tested on: SK-OV-3 ovarian
[20] = tested on: LOX IMVI melanoma
[21] = tested on: MCF7 breast
[22] = tested on: UACC-62 melanoma
[23] = tested on: KM12 colon
[24] = tested on: HL-60(TB) leukemia
[25] = tested on: NCI-H522 lung
[26] = tested on: SF-539 CNS
[27] = tested on: A498 renal
[28] = tested on: SR leukemia
[29] = tested on: HCT-116 colon
[30] = tested on: SF-268 CNS
[31] = tested on: EKVX NSCLC
[32] = tested on: MDA-MB-435
[33] = tested on: SNB-19 CNS
[34] = tested on: HOP-62 NSCLC
[35] = tested on: MOLT-4 leukemia
[36] = tested on: HOP-92 NSCLC
[37] = tested on: SF-295 CNS
[38] = tested on: TK-10 renal
[39] = tested on: NCI-H460 lung
[40] = tested on: MALME-3M melanoma
[41] = tested on: CCRF-CEM leukemia
[42] = tested on: SK-MEL-28 melanoma
[43] = tested on: HCC-2998 colon
[44] = tested on: M14 melanoma
[45] = tested on: K-562 leukemia
[46] = tested on: OVCAR-5 ovarian
[47] = tested on: U251 CNS
[48] = tested on: NCI/ADR-RES ovarian
[49] = tested on: IGROV1 ovarian
[50] = tested on: OVCAR-4 ovarian
[51] = tested on: SK-MEL-5 melanoma
[52] = tested on: UO-31 renal
[53] = tested on: A549 NSCLC
[54] = tested on: DU-145 prostate
[55] = tested on: RXF 393 renal
[56] = tested on: OVCAR-8 ovarian
[57] = tested on: UACC-257 melanoma

COc1ccc(-n2cc(-c3cc(OC)c(OC)c(OC)c3)[nH]c2=O)cc1Cl
28.8 µM: TGI [10]
> 100 µM: TGI [1] | TGI [2] | TGI [3] | TGI [4] | TGI [5] | TGI [6] | TGI [7] | TGI [8] | TGI [9] | TGI [11] | TGI [12] | TGI [13] | TGI [14] | TGI [15] | TGI [16] | TGI [17] | TGI [18] | TGI [19] | TGI [20] | TGI [21] | TGI [22] | TGI [23] | TGI [24] | TGI [25] | TGI [26] | TGI [27] | TGI [28] | TGI [29] | TGI [30] | TGI [31] | TGI [32] | TGI [33] | TGI [34] | TGI [35] | TGI [36] | TGI [37] | TGI [38] | TGI [39] | TGI [40] | TGI [41] | TGI [42] | TGI [43] | TGI [44] | TGI [45] | TGI [46] | TGI [47] | TGI [48] | TGI [49] | TGI [50] | TGI [51] | TGI [52] | TGI [53]
inactive: GI50 [1] > 100 µM | GI50 [2] > 100 µM | GI50 [3] > 100 µM | GI50 [4] > 100 µM | GI50 [5] 27.7 µM | GI50 [6] 34.9 µM | GI50 [7] > 100 µM | GI50 [8] > 100 µM | GI50 [9] > 100 µM | GI50 [10] 6.69 µM | GI50 [11] > 100 µM | GI50 [12] > 100 µM | GI50 [13] > 100 µM | GI50 [14] > 100 µM | GI50 [15] > 100 µM | GI50 [16] > 100 µM | GI50 [17] > 100 µM | GI50 [18] 34.9 µM | GI50 [19] 31.8 µM | GI50 [20] > 100 µM | GI50 [21] > 100 µM | GI50 [22] 51.1 µM | GI50 [23] > 100 µM | GI50 [24] > 100 µM | GI50 [25] > 100 µM | GI50 [26] 35 µM | GI50 [27] 73.9 µM | GI50 [28] 55.4 µM | GI50 [29] > 100 µM | GI50 [30] 40.8 µM | GI50 [31] > 100 µM | GI50 [32] > 100 µM | GI50 [33] 42.6 µM | GI50 [34] 51.7 µM | GI50 [35] > 100 µM | GI50 [36] 15 µM | GI50 [37] 48.9 µM | GI50 [38] 55.2 µM | GI50 [39] > 100 µM | GI50 [40] > 100 µM | GI50 [41] > 100 µM | GI50 [42] > 100 µM | GI50 [43] > 100 µM | GI50 [44] > 100 µM | GI50 [45] > 100 µM | GI50 [46] > 100 µM | GI50 [47] 37.7 µM | GI50 [48] > 100 µM | GI50 [49] > 100 µM | GI50 [50] > 100 µM | GI50 [51] > 100 µM | GI50 [52] > 100 µM | GI50 [53] > 100 µM

C[C@H](C(=O)N[C@@H](Cc1ccc(-c2ccccc2)cc1)C(=O)NC1CC(C)(C)NC(C)(C)C1)c1ccc(-c2ccccc2)c(F)c1
> 100 µM: TGI [43]
4.47 µM: TGI [48]
active: GI50 [54] 0.377 µM
inactive: GI50 [43] 0.813 µM | GI50 [48] 1.88 µM
1.54 µM: TGI [54]

C=C1C(=O)O[C@H]2[C@H]1CC/C(COC(=O)c1cc3ccccc3s1)=C\CC[C@@]1(C)O[C@@H]21
4.35 µM: TGI [18] | TGI [46]
13.4 µM: TGI [10]
1.84 µM: TGI [14]
2.1 µM: TGI [29]
3.49 µM: TGI [36]
4.57 µM: TGI [50]
4.24 µM: TGI [44]
inactive: GI50 [2] 1.5 µM | GI50 [3] 0.446 µM | GI50 [55] 1.23 µM | GI50 [5] 1.52 µM | GI50 [6] 2.89 µM | GI50 [7] 1.74 µM | GI50 [8] 0.566 µM | GI50 [9] 0.518 µM | GI50 [56] 1.8 µM | GI50 [10] 3.52 µM | GI50 [11] 1.83 µM | GI50 [12] 2 µM | GI50 [13] 1.71 µM | GI50 [14] 0.499 µM | GI50 [15] 2.06 µM | GI50 [16] 1.46 µM | GI50 [17] 1.75 µM | GI50 [18] 1.97 µM | GI50 [19] 13.9 µM | GI50 [22] 1.85 µM | GI50 [23] 1.78 µM | GI50 [24] 1.89 µM | GI50 [25] 0.987 µM | GI50 [26] 1.6 µM | GI50 [27] 10.1 µM | GI50 [28] 0.52 µM | GI50 [29] 0.591 µM | GI50 [30] 1.54 µM | GI50 [31] 1.69 µM | GI50 [32] 1.33 µM | GI50 [33] 2.09 µM | GI50 [34] 1.81 µM | GI50 [35] 1.88 µM | GI50 [36] 1.68 µM | GI50 [37] 3.33 µM | GI50 [38] 1.55 µM | GI50 [39] 2.2 µM | GI50 [40] 1.82 µM | GI50 [42] 1.76 µM | GI50 [54] 1.05 µM | GI50 [43] 1.75 µM | GI50 [57] 1.77 µM | GI50 [44] 1.75 µM | GI50 [45] 0.813 µM | GI50 [46] 2.02 µM | GI50 [47] 1.52 µM | GI50 [48] 2.14 µM | GI50 [49] 1.76 µM | GI50 [50] 2.08 µM | GI50 [51] 1.75 µM | GI50 [52] 1.4 µM | GI50 [53] 2.04 µM
3.34 µM: TGI [26]
3.21 µM: TGI [51]
5.14 µM: TGI [56]
7.69 µM: TGI [35]
30.5 µM: TGI [45]
3.57 µM: TGI [42]
4.97 µM: TGI [33]
21.8 µM: TGI [27]
2.34 µM: TGI [25]
3.59 µM: TGI [11]
3.23 µM: TGI [43]
5.55 µM: TGI [39]
3.52 µM: TGI [17]
8.52 µM: TGI [6]
4.4 µM: TGI [53]
3.58 µM: TGI [49]
1.79 µM: TGI [4]
4.63 µM: TGI [12]
5.53 µM: TGI [24]
3.79 µM: TGI [22]
4.08 µM: TGI [23]
3.44 µM: TGI [5]
3.61 µM: TGI [57]
2.66 µM: TGI [55]
4.54 µM: TGI [28]
3.84 µM: TGI [7]
2.79 µM: TGI [52]
2.97 µM: TGI [9]
2.02 µM: TGI [21]
2.99 µM: TGI [16]
6.63 µM: TGI [48]
3.24 µM: TGI [30]
2.3 µM: TGI [54]
3.75 µM: TGI [40]
3.03 µM: TGI [47]
4.61 µM: TGI [15]
4.79 µM: TGI [8]
0.509 µM: TGI [20]
12.8 µM: TGI [37]
2.93 µM: TGI [2] | TGI [38]
2.89 µM: TGI [32]
3.42 µM: TGI [34]
active: GI50 [4] 0.4 µM | GI50 [20] 0.206 µM | GI50 [21] 0.389 µM | GI50 [41] 0.403 µM
1.66 µM: TGI [3]
3.48 µM: TGI [13]
2.45 µM: TGI [41]
26.8 µM: TGI [19]
3.19 µM: TGI [31]
